Like-named read-outs stand apart in the source and are kept apart here.
Experiment: Biodistribution after oral administration
Type: in vivo, Sprague-Dawley Rats
Conditions: 75 mg/kg oral; for concentration at 8 h / Kp at 8 h / concentration at 0.25 h / Kp at 0.25 h / concentration at 2 h / Kp at 2 h: male, Sprague-Dawley, rat; for concentration at 8 h / concentration at 0.25 h / concentration at 2 h: read-out: Mean plasma/tissue concentration; for Kp at 8 h / Kp at 0.25 h / Kp at 2 h: read-out: Ratio (tissue to plasma)
Procedure: Male Sprague-Dawley Rats (total of 6 animals) 6 to 8 weeks of age (210-227 g) was used in this biodistribution study. Compound 1 was dosed at 75 mg/kg to all animals through oral route of administration at a 10 ml/kg dose volume. Compound 1 formulation was freshly prepared in Tween-80+0.5% methyl cellulose and maintained at room temperature until dosing. Dose was administered in all animals under fasted conditions. […] Heart, lung, liver, kidney, stomach, small intestine, large intestine, skeletal muscle, brain, spleen, pancreas and adipose were harvested while blood was processed to plasma for bioanalytical quantification of Compound 1.
Compound 1 bioanalytical assay was developed and validated using the SCIEX 6500 LC-MS/MS. A mobile phase (isocratic flow) comprised of Acetonitrile and 0.2% formic acid in MilliQ water in a Atlantis dC18-HPLC column (50×4.6 mm, […]), with a flow rate of 0.9 mL/min and a run time of 2.20 min. Mass transition (m/z) of 375.040 and 188.100 was used for detection of Compound 1 at an LLOQ of 2.14 ng/mL.

SMILES: COc1ccccc1-c1nc(CNC(=O)c2ccccc2OC(F)F)n[nH]1 [Compound 1, 2-(difluoromethoxy)-N-[[5-(2-methoxyphenyl)-1H-1,2,4-triazol-3-yl]methyl]benzamide]
- Tissue distribution: Drug distribution was revealed across all tissues
- Blood brain barrier penetration (8 hours): brain barrier penetration observed
- Percentage (plasma to tissue) (Adipose tissue, 0.25 hours): 1.94%
- Percentage (plasma to tissue) (Adipose tissue, 2 hours): 2.36%
- Percentage (plasma to tissue) (Adipose tissue, 8 hours): 3.06%
- Percentage (plasma to tissue) (Brain, 0.25 hours): 0.79%
- Percentage (plasma to tissue) (Brain, 2 hours): 0.57%
- Percentage (plasma to tissue) (Brain, 8 hours): 2.18%
- Percentage (plasma to tissue) (Heart, 0.25 hours): 1.89%
- Percentage (plasma to tissue) (Heart, 2 hours): 2.59%
- Percentage (plasma to tissue) (Heart, 8 hours): 4.19%
- Percentage (plasma to tissue) (Kidney, 0.25 hours): 2.99%
- Percentage (plasma to tissue) (Kidney, 2 hours): 2.92%
- Percentage (plasma to tissue) (Kidney, 8 hours): 4.16%
- Percentage (plasma to tissue) (Liver, 0.25 hours): 12.5%
- Percentage (plasma to tissue) (Liver, 2 hours): 10.6%
- Percentage (plasma to tissue) (Liver, 8 hours): 16.5%
- Percentage (plasma to tissue) (Lungs, 0.25 hours): 3.91%
- Percentage (plasma to tissue) (Lungs, 2 hours): 2.93%
- Percentage (plasma to tissue) (Lungs, 8 hours): 5.06%
- Percentage (plasma to tissue) (Pancreas, 0.25 hours): 3.42%
- Percentage (plasma to tissue) (Pancreas, 2 hours): 3.18%
- Percentage (plasma to tissue) (Pancreas, 8 hours): 7.60%
- Percentage (plasma to tissue) (Plasma, 0.25 hours): 3.59%
- Percentage (plasma to tissue) (Plasma, 2 hours): 2.29%
- Percentage (plasma to tissue) (Plasma, 8 hours): 5.37%
- Percentage (plasma to tissue) (Skeletal Muscle, 0.25 hours): 0.77%
- Percentage (plasma to tissue) (Skeletal Muscle, 2 hours): 0.85%
- Percentage (plasma to tissue) (Skeletal Muscle, 8 hours): 20.5%
- Percentage (plasma to tissue) (Small intestine, 0.25 hours): 21.9%
- Percentage (plasma to tissue) (Small intestine, 2 hours): 21.9%
- Percentage (plasma to tissue) (Small intestine, 8 hours): 4.82%
- Percentage (plasma to tissue) (Spleen, 0.25 hours): 4.26%
- Percentage (plasma to tissue) (Spleen, 2 hours): 1.68%
- Percentage (plasma to tissue) (Spleen, 8 hours): 7.84%
- Percentage (plasma to tissue) (Stomach, 0.25 hours): 42.7%
- Percentage (plasma to tissue) (Stomach, 2 hours): 48.1%
- Percentage (plasma to tissue) (Stomach, 8 hours): 18.8%
- concentration at 8 h (lung, Lungs, 8 hours): 78.2 ng/g
- Kp at 8 h (lung, Lungs, 8 hours): 0.94
- concentration at 0.25 h (Adipose tissue, 0.25 hours): 1530 ng/g
- Kp at 0.25 h (Adipose tissue, 0.25 hours): 0.54
- concentration at 2 h (Adipose tissue, 2 hours): 2030 ng/g
- Kp at 2 h (Adipose tissue, 2 hours): 1.03
- concentration at 8 h (Adipose tissue, 8 hours): 47.2 ng/g
- Kp at 8 h (Adipose tissue, 8 hours): 0.57
- concentration at 0.25 h (Brain, 0.25 hours): 624 ng/g
- Kp at 0.25 h (Brain, 0.25 hours): 0.22
- concentration at 2 h (Brain, 2 hours): 494 ng/g
- Kp at 2 h (Brain, 2 hours): 0.25
- concentration at 8 h (Brain, 8 hours): 33.6 ng/g
- Kp at 8 h (Brain, 8 hours): 0.4
- concentration at 0.25 h (Heart, 0.25 hours): 1490 ng/g
- Kp at 0.25 h (Heart, 0.25 hours): 0.53
- concentration at 2 h (Heart, 2 hours): 2230 ng/g
- Kp at 2 h (Heart, 2 hours): 1.13
- concentration at 8 h (Heart, 8 hours): 64.8 ng/g
- Kp at 8 h (Heart, 8 hours): 0.78
- concentration at 0.25 h (Kidney, 0.25 hours): 2360 ng/g
- Kp at 0.25 h (Kidney, 0.25 hours): 0.83
- concentration at 2 h (Kidney, 2 hours): 2520 ng/g
- Kp at 2 h (Kidney, 2 hours): 1.27
- concentration at 8 h (Kidney, 8 hours): 64.2 ng/g
- Kp at 8 h (Kidney, 8 hours): 0.77
- concentration at 0.25 h (Liver, 0.25 hours): 9890 ng/g
- Kp at 0.25 h (Liver, 0.25 hours): 3.49
- concentration at 2 h (Liver, 2 hours): 9140 ng/g
- Kp at 2 h (Liver, 2 hours): 4.63
- concentration at 8 h (Liver, 8 hours): 255 ng/g
- Kp at 8 h (Liver, 8 hours): 3.06
- concentration at 0.25 h (Lungs, 0.25 hours): 3090 ng/g
- Kp at 0.25 h (Lungs, 0.25 hours): 1.09
- concentration at 2 h (Lungs, 2 hours): 2520 ng/g
- Kp at 2 h (Lungs, 2 hours): 1.28
- concentration at 0.25 h (Pancreas, 0.25 hours): 2700 ng/g
- Kp at 0.25 h (Pancreas, 0.25 hours): 0.95
- concentration at 2 h (Pancreas, 2 hours): 2740 ng/g
- Kp at 2 h (Pancreas, 2 hours): 1.39
- concentration at 8 h (Pancreas, 8 hours): 117 ng/g
- Kp at 8 h (Pancreas, 8 hours): 1.41
- concentration at 0.25 h (Plasma, 0.25 hours): 2830 ng/mL
- concentration at 2 h (Plasma, 2 hours): 1980 ng/mL
- concentration at 8 h (Plasma, 8 hours): 83.1 ng/mL
- concentration at 0.25 h (Skeletal Muscle, 0.25 hours): 607 ng/g
- Kp at 0.25 h (Skeletal Muscle, 0.25 hours): 0.21
- concentration at 2 h (Skeletal Muscle, 2 hours): 734 ng/g
- Kp at 2 h (Skeletal Muscle, 2 hours): 0.37
- concentration at 8 h (Skeletal Muscle, 8 hours): 316 ng/g
- Kp at 8 h (Skeletal Muscle, 8 hours): 3.81
- concentration at 0.25 h (Small intestine, 0.25 hours): 16700 ng/g
- Kp at 0.25 h (Small intestine, 0.25 hours): 5.9
- concentration at 2 h (Small intestine, 2 hours): 18800 ng/g
- Kp at 2 h (Small intestine, 2 hours): 9.53
- concentration at 8 h (Small intestine, 8 hours): 74.4 ng/g
- Kp at 8 h (Small intestine, 8 hours): 0.9
- concentration at 0.25 h (Spleen, 0.25 hours): 3360 ng/g
- Kp at 0.25 h (Spleen, 0.25 hours): 1.19
- concentration at 2 h (Spleen, 2 hours): 1450 ng/g
- Kp at 2 h (Spleen, 2 hours): 0.73
- concentration at 8 h (Spleen, 8 hours): 121 ng/g
- Kp at 8 h (Spleen, 8 hours): 1.46
- concentration at 0.25 h (Stomach, 0.25 hours): 33700 ng/g
- Kp at 0.25 h (Stomach, 0.25 hours): 11.9
- concentration at 2 h (Stomach, 2 hours): 41500 ng/g
- Kp at 2 h (Stomach, 2 hours): 21
- concentration at 8 h (Stomach, 8 hours): 290 ng/g
- Kp at 8 h (Stomach, 8 hours): 3.5

Source: patent publication US20240342138A1, “MICROTUBULE TARGETING AGENTS” (BPGbio, Inc., priority 2023, published 2024)
